Source: ChEMBL document CHEMBL1152375 (Bioorg Med Chem Lett, 2009)
Activity calls are given as the source filed them. The calls are words filed in the database; no cut-off is given here.

Tests used:
[1] = molecular target: T1, Hydroxycarboxylic acid receptor 3 (Homo sapiens, UniProt P49019); test: Agonist activity at GPR109b receptor transfected in CHOK1 cells assessed as inhibition of forskolin-induced cAMP generation by HTRF assay; format: functional, cell-based, CHO-K1
[2] = molecular target: T1, Hydroxycarboxylic acid receptor 3; details: CHO-K1; 30 pM
[3] = molecular target: Hydroxycarboxylic acid receptor 2 (Homo sapiens) (UniProt Q8TDS4); test: Agonist activity at GPR109a receptor transfected in CHOK1 cells assessed as inhibition of forskolin-induced cAMP generation at 30 pM to 100 uM by HTRF assay; format: functional, cell-based; details: CHO-K1
[4] = molecular target: T1, Hydroxycarboxylic acid receptor 3; test: Agonist activity at GPR109b receptor transfected in forskolin-stimulated CHOK1 cells assessed as cAMP generation at 10 uM by HTRF assay; format: functional, cell-based; details: CHO-K1

Chain of Hydroxycarboxylic acid receptor 2 (Homo sapiens) (Q8TDS4 whole entry): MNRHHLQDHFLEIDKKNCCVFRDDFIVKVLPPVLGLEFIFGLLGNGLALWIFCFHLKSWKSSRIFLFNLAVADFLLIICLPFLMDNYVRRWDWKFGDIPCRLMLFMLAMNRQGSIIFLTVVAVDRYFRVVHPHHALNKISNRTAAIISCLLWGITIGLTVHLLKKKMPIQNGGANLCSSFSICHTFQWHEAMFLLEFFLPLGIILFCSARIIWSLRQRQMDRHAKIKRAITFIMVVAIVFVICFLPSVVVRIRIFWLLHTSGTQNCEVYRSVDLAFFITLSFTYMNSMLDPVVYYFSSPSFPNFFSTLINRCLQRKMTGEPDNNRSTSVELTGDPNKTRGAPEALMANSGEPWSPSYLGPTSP
T1 sequence (P49019 whole entry): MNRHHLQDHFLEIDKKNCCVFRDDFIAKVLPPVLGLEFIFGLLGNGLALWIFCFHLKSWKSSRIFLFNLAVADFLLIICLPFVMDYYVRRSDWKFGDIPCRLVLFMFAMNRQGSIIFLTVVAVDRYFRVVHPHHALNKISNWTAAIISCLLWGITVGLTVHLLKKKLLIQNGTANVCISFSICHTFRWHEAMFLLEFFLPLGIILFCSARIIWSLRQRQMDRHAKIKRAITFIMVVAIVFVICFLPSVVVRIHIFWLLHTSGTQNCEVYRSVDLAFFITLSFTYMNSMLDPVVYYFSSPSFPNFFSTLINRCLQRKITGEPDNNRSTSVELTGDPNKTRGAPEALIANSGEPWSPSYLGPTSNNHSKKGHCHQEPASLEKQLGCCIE

| EC50 [1] | Structure (SMILES) | other results |
| --- | --- | --- |
| 0.141 µM | O=C(O)c1cc(N(Cc2ccsc2)Cc2cccs2)[nH]n1 | – |
| 0.257 µM | O=C(O)c1cc(N(Cc2cccs2)Cc2cccs2)[nH]n1 | – |
| 0.851 µM | O=C(O)c1cc(N(Cc2ccccc2)Cc2ccccc2)[nH]n1 | – |
| 0.00316 µM | O=C(O)c1cc(N(Cc2ccsc2)Cc2ccsc2)[nH]n1 | – |
| 8.71 µM | O=C(O)c1cc(N(Cc2ccccc2F)Cc2ccccc2F)[nH]n1 | pEC50 [3]: inactive |
| > 10 µM | O=C(O)c1cc(N(Cc2ccsc2)Cc2ccco2)[nH]n1 | – |
| > 10 µM | O=C(O)c1cc(N(Cc2ccc(F)cc2)Cc2ccc(F)cc2)[nH]n1 | pEC50 [3]: inactive |
| 0.0145 µM | O=C(O)c1cc(N(Cc2ccccc2)Cc2ccsc2)[nH]n1 | – |
| 8.91 µM | O=C(O)c1cc(N(Cc2ccoc2)Cc2ccoc2)[nH]n1 | pEC50 [3]: inactive |
| > 10 µM | O=C(O)c1cc(N(Cc2cccc(F)c2)Cc2cccc(F)c2)[nH]n1 | – |

Continued, compound first:

| Structure (SMILES) | EC50 [1] | other results |
| --- | --- | --- |
| O=C(O)c1cc(N(CC2CCCCC2)CC2CCCCC2)[nH]n1 | – | pEC50 [2]: inactive |
| CCCC(C)Nc1cc(C(=O)O)n[nH]1 (stereo unspecified) | 6.76 µM | pEC50 [3]: inactive |
| C=CCNc1ccc(C(=O)O)cn1 | 0.0417 µM | Activity [4]: 200% |
| CCCCCCN(CCCCCC)c1cc(C(=O)O)n[nH]1 | > 10 µM | – |
| O=C(O)c1cc(N(CCc2ccccc2)CCc2ccccc2)[nH]n1 | 5.62 µM | – |
| O=C(O)c1cc(N(CC2CC2)CC2CC2)[nH]n1 | 3.98 µM | pEC50 [3]: inactive |
| Cc1ccc(CN(Cc2ccc(C)s2)c2cc(C(=O)O)n[nH]2)s1 | – | pEC50 [2]: inactive |
| CC(C)CCN(CCC(C)C)c1cc(C(=O)O)n[nH]1 | > 10 µM | – |
| O=C(O)c1cc(N(Cc2ccc(Br)s2)Cc2ccc(Br)s2)[nH]n1 | – | pEC50 [2]: inactive |
| O=C(O)c1cc(N(Cc2ccoc2)Cc2ccsc2)[nH]n1 | – | pEC50 [2]: inactive |
| CCCN(CCC)c1cc(C(=O)O)n[nH]1 | 8.32 µM | – |
| O=C(O)c1cc(N(Cc2ccc(F)cc2)Cc2ccsc2)[nH]n1 | – | pEC50 [2]: inactive |
| O=C(O)c1cc(NCc2ccccc2)[nH]n1 | – | pEC50 [2]: inactive |
| CCC(C)Nc1cc(C(=O)O)n[nH]1 (stereo unspecified) | 4.47 µM | pEC50 [3]: inactive |
